Holding throughout (assay type): cell-based
The test system of one experiment is Enterobacter cloacae 963. Nature of the experiment: minimal inhibitory concentration, in vitro antibacterial activity. To be noted: 37° C., 20 hours. The essentials:
(§1)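 MIC taken as the lowest compound concentration preventing bacterial growth, determined by the Japan Society of Chemotherapy standard method. Cultures were incubated at 37° C. for 20 hours.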

A further experiment concerns Escherichia coli CI-304. Described as above. Particulars: CI304, 37° C., 20 hours. The essentials:
as §1

The test system of experiment [1] is Proteus vulgaris ATCC 13315. Described as above. To be noted: ATCC13315, 37° C., 20 hours. The method, boiled down:
as §1

Experiment [2] has as its system Escherichia coli NIHJ JC-2. The description is as above. Particulars: NIHJJC2, 37° C., 20 hours. The method, boiled down:
as §1

Experiment [3] has as its system Serratia marcescens IAM 1184. The experiment is described as above. Particulars: IAM1184, 37° C., 20 hours. The essentials: as §1
The test system of experiment [4] is Pseudomonas aeruginosa NCTC 10490. The description is as above. To be noted: NCTC10490, 37° C., 20 hours. The essentials: as §1
Experiment [5] concerns Staphylococcus aureus FDA 209P JC-1. The experiment is described as above. To be noted: FDA209P, 37° C., 20 hours. The essentials:
as §1

Experiment [6] concerns Salmonella enteritidis G14. The experiment is described as above. Particulars: Salmonella enterica, 37° C., 20 hours. The essentials: as §1
Experiment [7] deals with Streptococcus faecalis AHU 1085. Described as above. To be noted: Enterococcus faecalis, AHU1085, 37° C., 20 hours. The essentials: as §1
The subject of experiment [8] is Klebsiella pneumoniae PCI 602. Described as above. To be noted: PCI602, 37° C., 20 hours. The method, boiled down:
as §1

The test system of experiment [9] is Bacillus subtilis ATCC 6633. The description is as above. Particulars: ATCC6633, 37° C., 20 hours. The essentials: as §1
The test system of experiment [10] is Gram-negative bacteria (such as Pseudomonas aeruginosa, Serratia marcescens and the like). Nature of the experiment: confirmatory experiment on the antibacterial activity of Compound α. An excerpt:
(§2) On the other hand, Compound α has only been reported to be useful as an intermediate material for the preparation of 9-fluoro-6, 7-dihydro-7-hydroxy-5-methyl-1-oxo-1H, 5H-benzo[ij]quinolizine-2-carboxylic acid (Japanese Patent Laid-Open No. 127,099/'76), and no detailed report on its antibacterial activity has been published.

For another experiment, the system named is Gram-positive bacteria. The description is as above.
Source text: as §2

In brackets after ≈: the same amount, converted by molar mass.

By MIC is commonly meant the lowest concentration found to suppress growth. Read a high MIC as a need for much substance.

Regarding `CC1CC(=O)c2cc(F)cc3c(=O)c(C(=O)O)cn1c23` (stereo not drawn) [Compound α, 9-fluoro-6,7-dihydro-1,7-dioxo-5-methyl-1H, 5H-benzo[ij]quinolizine-2-carboxylic acid, reference compound], the MIC in the experiment with Enterobacter cloacae 963 was 12.5 µg/mL (≈ 45.4 µM); in the experiment with Escherichia coli CI-304 it was 12.5 µg/mL (≈ 45.4 µM); in experiment [1], 25 µg/mL (≈ 90.8 µM); in [2], 25 µg/mL (≈ 90.8 µM); in experiment [3], above 100 µg/mL; in experiment [4], above 100 µg/mL. Besides, the MIC was above 100 µg/mL in experiment [5]; 50 µg/mL (≈ 182 µM) in [6]; above 100 µg/mL in experiment [7]; 12.5 µg/mL (≈ 45.4 µM) in [8]; 12.5 µg/mL (≈ 45.4 µM) in experiment [9]. Also, in experiment [10], the “efficacy against Gram-negative bacteria” value is “utterly ineffective”. In addition, the “efficacy against Gram-positive bacteria” value in the experiment on Gram-positive bacteria is “low”.

The values are drawn from patent US4720495A, “Benzo[ij]quinolizine-2-carboxylic acids useful for treating bacterial infection” (priority 1985, dated 1988).
